Data taken from PMC12051620, “Molecular basis underlying the specificity of an antagonist AA92593 for mammalian melanopsins” (The Journal of Biological Chemistry, 2025).

Experiments:
[1] = target: T1, mouse melanopsin (Mus musculus, UniProt Q9QXZ9); assay: GsX GloSensor assay with Gsα/i11; format: cell-based; settings: 16.7 μM AA92593; COS-1 cells
T1 construct: the C-terminal amino acid residues (94, 140, 200, 214, 296, and 308 residues); expressed in transfected cells; host or cells: COS-1
From the text: (§1) Previous studies of human and mouse melanopsins reported that these melanopsins can activate not only Gq but Gs and Gi ([20], [21], [22]). Thus, we assessed the effect of AA92593 on Gsα WT or Gsα/i11 (with 11 C-terminal sequence of Giα) using the GsX GloSensor assay. In agreement with the promiscuous G protein-coupling of melanopsins, we observed light-dependent increase of GloSensor luminescence in COS-1 cells expressing Gsα or Gsα/i11 with human/mouse melanopsins (Fig. 1, G–J).
(§2) For GloSensor assay, opsins, GloSensor assay sensor (coded by pGlo-22F), and NanoBiT-tagged G proteins were transiently expressed in COS-1 cells (kindly provided from Dr David Farrens, Oregon Health and Science University) using PEI as described previously ([24], [52]). […] For GFP-fluorescence microscopy, a 35-mm cell culture dish (IWAKI) was transfected with 2 μg melanopsin-GFP plasmid and 8 μg PEI in 400 μl Opti-mem and 1.2 ml D-MEM. […]
(§3) The transfected COS-1 cells were incubated at 37 °C, 5% CO2 for 2 days, and the medium was aspirated and exchanged with 50 μl of HBSS (145 mM NaCl, 10 mM D-glucose, 5 mM KCl, 1 mM MgCl2, 1.7 mM CaCl2, 1.5 mM NaHCO3, 10 mM Hepes, pH 7.4), containing 33.3, 20, 10, 2, 0.2, 0.02, 0.002, or 0 μM AA92593, 0.5% dimetyl sulfoxide (DMSO), and 4% (vol/vol) GloSensor cAMP reagent stock solution. […] Luminescence was measured using GM-2000 or GM-3510 microplate reader (Promega). […]

[2] = target: T1, mouse melanopsin; assay: GsX GloSensor assay with exogenous Gsα WT; format: cell-based; settings: 16.7 μM AA92593; COS-1 cells
From the text: as §1, §2, §3

T1 sequence (Q9QXZ9 1-381 limits assumed): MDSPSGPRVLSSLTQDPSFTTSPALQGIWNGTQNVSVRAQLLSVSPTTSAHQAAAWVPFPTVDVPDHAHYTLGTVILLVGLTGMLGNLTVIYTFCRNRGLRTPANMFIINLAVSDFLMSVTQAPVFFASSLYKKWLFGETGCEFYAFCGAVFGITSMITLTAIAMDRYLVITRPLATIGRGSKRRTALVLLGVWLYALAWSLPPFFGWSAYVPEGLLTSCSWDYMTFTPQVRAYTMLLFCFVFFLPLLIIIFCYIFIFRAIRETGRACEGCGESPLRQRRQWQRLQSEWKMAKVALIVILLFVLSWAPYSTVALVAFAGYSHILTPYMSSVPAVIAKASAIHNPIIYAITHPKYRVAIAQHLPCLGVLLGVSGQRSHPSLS

SMILES: COc1ccc(S(=O)(=O)N2CCCCC2)cc1C [AA92593]
- effect on melanopsin-induced cAMP responses via Gsα/i11 [1]: can suppress
- effect on melanopsin-induced cAMP responses via exogenous Gsα [2]: can suppress
